Data set [1] concerns Enterococcus faecalis. Put plainly: Antibacterial activity against Enterococcus faecalis incubated for 16 to 24 hrs in presence of rifampicin by broth microdilution based spectrophotometric analysis. It is filed as functional, organism-based. For orientation: In broth dilution the organism is exposed to a series of concentrations in liquid medium.
In data set [2] the test system is Staphylococcus aureus. Put plainly: Antibacterial activity against Staphylococcus aureus ATCC 25923 incubated for 16 to 24 hrs in presence of rifampin by broth microdilution based spectrophotometric analysis. Format: functional, organism-based.
Data set [3] deals with Staphylococcus aureus. The data set is described as follows: Antibacterial activity against Staphylococcus aureus ATCC 25923 incubated for 16 to 24 hrs in presence of ampicillin by broth microdilution based spectrophotometric analysis. Format: functional, organism-based.
For data set [4], the system named is Enterococcus faecalis. The data set is described as follows: Antibacterial activity against Enterococcus faecalis incubated for 16 to 24 hrs in presence of ampicillin by broth microdilution based spectrophotometric analysis. It is filed as functional, organism-based.
Data set [5] has as its system Enterococcus faecium. Put plainly: Antibacterial activity against vancomycin-resistant Enterococcus faecium incubated for 16 to 24 hrs by broth microdilution based spectrophotometric analysis. It is filed as functional, organism-based.
Data set [6] relates to Staphylococcus aureus. The data set is described as follows: Antibacterial activity against methicillin-resistant Staphylococcus aureus ATCC 43300 incubated for 16 to 24 hrs by broth microdilution based spectrophotometric analysis. It is filed as functional, organism-based.
Data set [7] deals with Staphylococcus aureus. Put plainly: Antibacterial activity against methicillin-resistant Staphylococcus aureus ATCC 33591 incubated for 16 to 24 hrs by broth microdilution based spectrophotometric analysis. It is filed as functional, organism-based.
Data set [8] concerns Staphylococcus aureus. Put plainly: Antibacterial activity against Staphylococcus aureus ATCC 25923 incubated for 16 to 24 hrs by broth microdilution based spectrophotometric analysis. It is filed as functional, organism-based.
Data set [9] deals with Candida albicans. Put plainly: Antifungal activity against Candida albicans ATCC 10231 incubated for 16 to 24 hrs by broth microdilution based spectrophotometric analysis. Format: functional, organism-based.
Data set [10] has as its system Mycobacterium tuberculosis. Put plainly: Antibacterial activity against Mycobacterium tuberculosis H37Ra ATCC 25177 incubated for 16 to 24 hrs by broth microdilution based spectrophotometric analysis. It is filed as functional, organism-based.
Data set [11] has as its system Enterococcus faecalis. The data set is described as follows: Antibacterial activity against Enterococcus faecalis incubated for 16 to 24 hrs by broth microdilution based spectrophotometric analysis. It is filed as functional, organism-based.
A short description of data set [12]: Cytotoxicity against human SW-620 cells and measured after 48 hrs by MTT assay. It is filed as toxicity, cell-based. For orientation: Tetrazolium dyes change colour on reduction, which living cells bring about.
Data set [13] concerns Escherichia coli. The data set is described as follows: Antibacterial activity against Escherichia coli ATCC 11775 incubated for 16 to 24 hrs by broth microdilution based spectrophotometric analysis. Format: functional, organism-based.
Data set [14] is described as follows: Cytotoxicity against human NCI-H460 cells and measured after 48 hrs by MTT assay. Format: toxicity, cell-based.

Some results are limits rather than exact numbers.

Our source for the IC50 values is ChEMBL document CHEMBL5143711, “Glenthmycins A-M: Macrocyclic Spirotetronate Polyketide Antibacterials from the Australian Pasture Plant-Derived Streptomyces sp. CMB-PB041” (J Nat Prod, 2022).

As to `CC1(C)S[C@@H]2[C@H](NC(=O)[C@H](N)c3ccccc3)C(=O)N2[C@H]1C(=O)O` [AMPICILLIN], the half-inhibitory concentration (IC50) in data set [1] and in data set [2] was less than 10 µM throughout.

For the compound `CO[C@H]1/C=C/O[C@@]2(C)Oc3c(C)c(O)c4c(O)c(c(/C=N/N5CCN(C)CC5)c(O)c4c3C2=O)NC(=O)/C(C)=C\C=C\[C@H](C)[C@H](O)[C@@H](C)[C@@H](O)[C@@H](C)[C@H](OC(C)=O)[C@@H]1C` [RIFAMPIN], the half-maximal inhibitory concentration (IC50) in [3] and in [4] was less than 10 µM each time.

With `COc1cc(C)c(C(=O)O[C@H]2[C@@H](O)[C@H](O[C@H]3CC[C@H](C)[C@@H]4[C@@H]3C=C(C)[C@H]3/C(C)=C/CC/C(C)=C/[C@]5(C)C=C(C(=O)O)[C@H](C)C[C@]56OC(=O)C(=C6O)C(=O)[C@@]43C)O[C@H](C)[C@H]2O)c(O)c1`, the IC50 – broadly, the concentration that gives 50% inhibition – in [5] is 13.1 µM; in data set [6], 7.3 µM; in data set [7] it was 12.2 µM; in [8], 23.2 µM; in [9], more than 30 µM; in [10] it was more than 30 µM. Besides, the IC50 in data set [11] was 4 µM; in [13] it was more than 30 µM. The 50% inhibitory concentration (IC50) at 48 h in data set [12] and in [14] was more than 30 µM in each case.

For the compound `COc1cc(C)c(C(=O)O[C@H]2[C@@H](O)[C@@H](O)[C@H](O[C@H]3CC[C@H](C)[C@@H]4[C@@H]3C=C(C)[C@H]3/C(C)=C/CC/C(C)=C/[C@@H]5C=C(C(=O)O)[C@H](C)C[C@]56OC(=O)C(=C6O)C(=O)[C@@]43C)O[C@@H]2C)c(O)c1`, the 50% inhibitory concentration (IC50) in data set [5] is 5.4 µM; in data set [6], 6.3 µM; in data set [7] it was 8.3 µM; in data set [8] it was 15.3 µM; in data set [9], more than 30 µM; in data set [10] it was more than 30 µM. Further, the concentration for half-maximal inhibition (IC50) in [11] is 3.1 µM; in data set [13], more than 30 µM. Also, the IC50 at 48 h in data set [12] and in data set [14] was more than 30 µM in each case.

`CC(=O)O[C@H]1CC[C@H](C)[C@@H]2[C@@H]1C=C(C)[C@H]1/C(C)=C/CC/C(C)=C/[C@]3(C)C=C(C)[C@H](C)C[C@]34OC(=O)C(=C4O)C(=O)[C@@]21C`: the IC50 in [5] is 10 µM; in data set [6] it was 1.1 µM; in data set [7], 0.9 µM; in [8] it was 1.2 µM; in data set [9] it was more than 30 µM; in data set [10] it was more than 30 µM. For the same compound, the IC50 in data set [11] was 3.7 µM; in data set [13] it was more than 30 µM. Also, the 50% inhibitory concentration (IC50) at 48 h in data set [12] and in data set [14] was more than 30 µM throughout.

Take `CC1=C[C@@]2(C)/C=C(\C)CC/C=C(\C)[C@@H]3C(C)=C[C@H]4[C@@H]([C@@H](C)CC[C@@H]4O)[C@]3(C)C(=O)C3=C(O)[C@@]2(C[C@H]1C)OC3=O`: the IC50 in data set [5] was more than 30 µM; in data set [6], 3.8 µM; in data set [7], 8.4 µM; in data set [8] it was 16.4 µM; in [9], more than 30 µM; in [10], more than 30 µM. Besides, the 50% inhibitory concentration (IC50) in data set [11] and in data set [13] was more than 30 µM each time. The IC50 at 48 h in data set [12] and in [14] was more than 30 µM each time.
